This note sets out measurements from patent US5453438A, “Hydroxamic acid based collagenase inhibitors” (British Biotech Pharmaceuticals Limited, priority 1989, dated 1995).

The test deals with collagenase. The test can be described thus: Collagenase inhibition activity (acetylated 14C collagen hydrolysis, Cawston and Barrett). It is filed as biochemical. The following applies: 37°, 16 hours, pH 7.5, read-out: IC50 (inhibitor concentration effecting 50% inhibition of the collagenase). Here is the method:
The potency of compounds of general formula I to act as inhibitors of collagenase (a metalloprotease involved in tissue degradation) was determined by the procedure of Cawston and Barrett, (Anal. Biochem., 99, 340-345, 1979) and their potency to act as inhibitors of stromelysin was determined using the procedure of Cawston et al (Biochem. J., 195, 159-165 1981), both of which techniques are to be described more fully in the examples and, to the extent that the law allows, are incorporated by reference herein.
The potency of compounds of general formula I to act as inhibitors of collagenase (a metalloprotease involved in tissue degradation) was determined by the procedure of Cawston and Barrett, (Anal. Biochem., 99, 340-345, 1979), hereby incorporated by reference, whereby a 1 mM solution of the inhibitor being tested or dilutions thereof was incubated at 37° for 16 hours with collagen and collagenase (buffered with 25 mM Hepes, pH 7.5 containing 5 mM CaCl2, 0.05% Brij 35 and 0.02% NAN3). The collagen was acetylated ^14C collagen prepared by the method of Cawston and Murphy (Methods in Enzymology, 80, 711, 1981), hereby incorporated by reference. The samples were centrifuged to sediment undigested collagen and an aliquot of the radioactive supernatant removed for assay on a scintillation counter as a measure of hydrolysis. The collagenase activity in the presence of 1 mM inhibitor, or a dilution thereof, was compared to activity in a control devoid of inhibitor and the results reported below as that inhibitor concentration effecting 50% inhibition of the collagenase (IC50).

With `CCSCCNC(=O)[C@H](Cc1ccccc1)NC(=O)[C@@H](CC(=O)NO)CC(C)C` [Example 3, [4-(N-Hydroxyamino)-2R-isobutylsuccinyl]-L-phenylalanine-N-(2-ethylthioethyl) amide], the IC50 turned out to be 20 nM.

As for `CC(C)C[C@H](CC(=O)NO)C(=O)N[C@@H](Cc1ccccc1)C(=O)N(C)CCO` [Example 2, [4-(N-Hydroxyamino)-2R-isobutylsuccinyl]-L-phenylalanine-N-(2-hydroxyethyl)-N-methylamide], the IC50 was determined as 200 nM.

For the compound `CC(=O)NCCNC(=O)[C@H](Cc1ccccc1)NC(=O)[C@@H](CC(=O)NO)CC(C)C` [Example 4, [4-(N-Hydroxyamino)-2R-isobutylsuccinyl]-L-phenylalanine-N-(2-N-acetylethyl) amide], the IC50 was determined as 90 nM.
